Assay results taken from US10548902B1, “Telomerase enhancement potential of ecdysterone” (SAMI LABS LIMITED, priority 2018, dated 2020).

Molecular target: T1, Telomerase (Homo sapiens, UniProt O14746)
T1 construct: endogenous in cells; host or cells: PBMCs isolated from blood, stimulated with 10 μg/ml PHA
Test: Telomerase activity, TeloTAGGG telomerase PCR ELISA (TRAP assay) in PHA-treated PBMCs
Type: cell-based
Settings: for % increase in Telomerase activity: PBMCs, 10 μg/ml PHA, 48 hours
Description: The assay was carried out using Telo TAGGG telomerase PCR ELISA kit (Roche). It allows highly specific amplification of telomerase mediated elongation products followed by detection through ELISA. In the first step telomerase adds the telomeric repeats (TTAGGG) tot eh 3′ end of the biotin labeled synthetic P1 primer. In the second step these elongation products are amplified using P2 and P1 primers generating telomerase specific 6 bp increments. PCR product is denatured and hybridized to a digioxigenin labeled telomere repeat specific detection probe. The resultant product is bound to a streptavidin specific miroplate via biotin labeled primer 1. The bound products are detected using anti digioxigenein antibody conjugated to horse radish peroxidase. The enzyme reaction is visualized using […] substrate.
2×10^5 PBMCs isolated from blood were seeded in RPMI 1640 medium in 6 well plates. Cells were treated with 10 μg/ml PHA along with different concentrations of ecdysterone/extracts containing ecdysterone. Cells were incubated in a humidified atmosphere with 5% CO2 for 48 hours. After 48 hours of incubation, cells were harvested and centrifuged at 3000 g for 10 minutes at 4° C. Supernatant was removed and PBS was added and centrifuged again. Pellet was suspended in lysis reagent on ice (TeloTAGGG™ Telomerase PCR ELISA). Suspension was retero pipetted at least thrice and incubated for 20 minutes on ice and centrifuged at 16000 g for 20 minutes at 4° C. TRAP assay followed by ELISA was performed as per manufacturer's instructions (TeloTAGGG™ Telomerase PCR ELISA, Merck).

T1 sequence (O14746 whole entry): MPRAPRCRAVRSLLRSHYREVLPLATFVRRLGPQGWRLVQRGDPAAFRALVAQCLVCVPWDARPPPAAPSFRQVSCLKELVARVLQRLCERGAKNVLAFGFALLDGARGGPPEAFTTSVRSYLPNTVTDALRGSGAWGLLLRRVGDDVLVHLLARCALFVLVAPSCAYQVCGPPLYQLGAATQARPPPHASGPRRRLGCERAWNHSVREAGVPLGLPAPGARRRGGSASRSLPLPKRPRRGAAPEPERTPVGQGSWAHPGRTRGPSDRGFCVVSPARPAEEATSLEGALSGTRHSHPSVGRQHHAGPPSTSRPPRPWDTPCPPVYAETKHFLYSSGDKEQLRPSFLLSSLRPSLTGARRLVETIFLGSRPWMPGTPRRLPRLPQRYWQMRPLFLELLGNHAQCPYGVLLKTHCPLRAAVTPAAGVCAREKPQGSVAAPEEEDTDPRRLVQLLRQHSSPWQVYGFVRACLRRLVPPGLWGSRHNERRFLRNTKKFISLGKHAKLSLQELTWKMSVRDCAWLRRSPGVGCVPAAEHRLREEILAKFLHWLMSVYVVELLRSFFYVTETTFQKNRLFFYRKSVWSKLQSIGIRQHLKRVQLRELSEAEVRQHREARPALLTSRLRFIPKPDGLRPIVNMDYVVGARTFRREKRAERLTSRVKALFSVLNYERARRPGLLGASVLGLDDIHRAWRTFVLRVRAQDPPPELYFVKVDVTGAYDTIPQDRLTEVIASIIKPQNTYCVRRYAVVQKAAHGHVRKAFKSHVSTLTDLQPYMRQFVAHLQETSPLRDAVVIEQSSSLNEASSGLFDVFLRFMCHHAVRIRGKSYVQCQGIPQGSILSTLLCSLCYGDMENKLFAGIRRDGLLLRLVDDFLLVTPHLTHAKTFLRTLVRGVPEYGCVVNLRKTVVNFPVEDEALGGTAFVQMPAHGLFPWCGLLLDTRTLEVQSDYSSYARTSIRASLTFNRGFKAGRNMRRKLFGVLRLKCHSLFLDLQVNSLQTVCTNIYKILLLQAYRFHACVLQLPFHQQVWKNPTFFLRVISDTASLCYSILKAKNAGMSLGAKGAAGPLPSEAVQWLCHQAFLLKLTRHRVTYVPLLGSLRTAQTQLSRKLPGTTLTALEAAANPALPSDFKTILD

## CC(C)(O)CC[C@@H](O)[C@](C)(O)[C@H]1CC[C@@]2(O)C3=CC(=O)[C@@H]4C[C@@H](O)[C@@H](O)C[C@]4(C)[C@H]3CC[C@]12C [Ecdysterone, ecdysterone]
Concentrations of 0.062-0.25 μg/ml
  increase in telomerase activity (in words): significant increase
Ecdysterone 0.062 μg/ml
  % increase in Telomerase activity: 62.1%
Ecdysterone 0.125 μg/ml
  % increase in Telomerase activity: 64.7%
Ecdysterone 0.25 μg/ml
  % increase in Telomerase activity: 63.31%
Ecdysterone 0.5 μg/ml
  % increase in Telomerase activity: Nil
